Results taken from patent US8188085B2, “Antifungal agents” (Merck Sharp & Dohme Corp., priority 2008, dated 2012).

Target: glucan synthase (GS) prepared from Candida albicans MY1055 (Candida albicans, UniProt O13428)
Assay: Glucan synthase inhibition (polymerization assay, 96-well)
Format: biochemical
Conditions: GS from C. albicans MY1055; 60 min incubation at 22° C.; read-out: Candida Albicans GS IC50 (converted)
Description: The in vitro evaluation of glucan synthase inhibitory activity of compounds was measured in a polymerization assay in 96-well format. Each well contained 100 μL of ^3H-UDPG at 0.5 mM (6000 to 8000 dpm/nmol), 50 mM HEPES pH 7.5 (Sigma), 10% w/v glycerol (Sigma), 1.5 mg/mL bovine serum albumin (Sigma A 9647. Lot 44H0190), 25 mM KF (Fisher), 1 mM EDTA (Gibco ULTRAPURE), 25 μM GTP-γ-S, enzyme sufficient to give 3 to 6 nmoles incorporation during the 60 min incubation at 22° C., and test compound added from wells in 3-fold serial dilutions in 100% DMSO (1 μL/well). The reaction was stopped by the addition of 100 μL of 20% trichloroacetic acid. Plates were chilled for a minimum of 10 min, and precipitated glucan collected by filtration on GF/C plates (Packard UNIFILTER®-96), washed with 5 cycles of water (about 1 mL/well each cycle) using a Packard FILTERMATE HARVESTER. 40 μL/well scintillation fluid (Packard ULTIMA GOLD TM-XR) was added and the sealed plates counted in a WALLAC BETA counter in top-counting mode at an efficiency of approximately 40%.
Stock solutions were stored at 10 mg/mL in DMSO at −20° C. For each new enzyme preparation, the initial titration performed started at 1 mg/mL, which was prepared by making a 10-fold dilution in DMSO (5 μL to 50 μL). 40 μL of this stock was placed in column 12 of a round-bottomed 96-well microtiter plate. 40 μL DMSO was added to columns 1 to 11 in the same row and ten 3-fold serial dilutions performed, by transferring 20 μL from column 12 to column 11 etc., with 4 mixings before each transfer. No test compound was transferred to from column 2 to column 1. Duplicate aliquots of 1 μL of all 12 dilutions were then transferred to the side walls of a 96-well Bioblock 1.1 mL plate (Fisher brand) to create two rows.
Graphs of the primary data were created in PRISM software (the average of two determinations) using PRISM's curve fitting program (sigmoidal dose response non-linear regression). The amount of compound required to inhibit glucan synthase activity by 50% in this assay (IC50−ng/mL) was calculated.
Routine analysis was performed with glucan synthase (GS) prepared from Candida albicans MY1055 by the following procedure: MY1055 was grown in 10 liters YPD medium (10 g yeast extract, 20 g tryptone, 20 g glucose per liter) with vigorous shaking at 30° C., to early stationary phase. Cells were harvested by centrifugation, the pellet was washed and frozen at −70° C. until breakage. Thawed pellets were shaken with an equal volume of breakage buffer (50 mM HEPES pH 7.4, 10% glycerol, 1 mM EDTA, 1 mM PMSF, 1 mM DTT) and 4 times their weight of 0.5 mm acid washed glass beads for 2 hours at 4° C. Extent of breakage was assessed visually at 40× magnification. After low speed centrifugation to remove cell debris, the supernatant was centrifuged at 100,000×g for 60 min. to separate membranes plus ribosomes from cytoplasmic components. Membranes were further washed two additional times with breakage buffer using the same centrifugation conditions and finally suspended in breakage buffer at 25 to 30 mg/mL protein (Biorad) for storage at −70° C. Extraction of GS activity from membranes was performed at a protein concentration of 5 mg/mL in extraction buffer (50 mM NaPO4 pH 7.5, 0.1 M KCl, 0.1M Na citrate, 20% glycerol, 5 μM GTP-γ-S, 1 mM DTT, 1 mM PMSF, 3 μg/mL pepstatin) plus 0.25% W1 by gentle mixing at 4° C. for 60 min, followed by centrifugation at 100,000×g for 60 min. After centrifugation, clear supernatant was removed from a pellet consisting of a hard layer usually with small amounts of gelatinous unextracted membranes above it.
Trapping was initiated immediately by 5-fold dilution in trapping buffer (50 mM HEPES pH 7.5, 10 mM KF, 1 mM EDTA, 2 mg/mL BSA) plus 2.5 mM UDPG and 10 μM GTP-γ-S. After incubation at 25° C. for 60 to 90 minutes, glucan was harvested by low speed centrifugation (3,000×g, 10 min). […]

Chain of glucan synthase (GS) prepared from Candida albicans MY1055 (O13428 1-1897): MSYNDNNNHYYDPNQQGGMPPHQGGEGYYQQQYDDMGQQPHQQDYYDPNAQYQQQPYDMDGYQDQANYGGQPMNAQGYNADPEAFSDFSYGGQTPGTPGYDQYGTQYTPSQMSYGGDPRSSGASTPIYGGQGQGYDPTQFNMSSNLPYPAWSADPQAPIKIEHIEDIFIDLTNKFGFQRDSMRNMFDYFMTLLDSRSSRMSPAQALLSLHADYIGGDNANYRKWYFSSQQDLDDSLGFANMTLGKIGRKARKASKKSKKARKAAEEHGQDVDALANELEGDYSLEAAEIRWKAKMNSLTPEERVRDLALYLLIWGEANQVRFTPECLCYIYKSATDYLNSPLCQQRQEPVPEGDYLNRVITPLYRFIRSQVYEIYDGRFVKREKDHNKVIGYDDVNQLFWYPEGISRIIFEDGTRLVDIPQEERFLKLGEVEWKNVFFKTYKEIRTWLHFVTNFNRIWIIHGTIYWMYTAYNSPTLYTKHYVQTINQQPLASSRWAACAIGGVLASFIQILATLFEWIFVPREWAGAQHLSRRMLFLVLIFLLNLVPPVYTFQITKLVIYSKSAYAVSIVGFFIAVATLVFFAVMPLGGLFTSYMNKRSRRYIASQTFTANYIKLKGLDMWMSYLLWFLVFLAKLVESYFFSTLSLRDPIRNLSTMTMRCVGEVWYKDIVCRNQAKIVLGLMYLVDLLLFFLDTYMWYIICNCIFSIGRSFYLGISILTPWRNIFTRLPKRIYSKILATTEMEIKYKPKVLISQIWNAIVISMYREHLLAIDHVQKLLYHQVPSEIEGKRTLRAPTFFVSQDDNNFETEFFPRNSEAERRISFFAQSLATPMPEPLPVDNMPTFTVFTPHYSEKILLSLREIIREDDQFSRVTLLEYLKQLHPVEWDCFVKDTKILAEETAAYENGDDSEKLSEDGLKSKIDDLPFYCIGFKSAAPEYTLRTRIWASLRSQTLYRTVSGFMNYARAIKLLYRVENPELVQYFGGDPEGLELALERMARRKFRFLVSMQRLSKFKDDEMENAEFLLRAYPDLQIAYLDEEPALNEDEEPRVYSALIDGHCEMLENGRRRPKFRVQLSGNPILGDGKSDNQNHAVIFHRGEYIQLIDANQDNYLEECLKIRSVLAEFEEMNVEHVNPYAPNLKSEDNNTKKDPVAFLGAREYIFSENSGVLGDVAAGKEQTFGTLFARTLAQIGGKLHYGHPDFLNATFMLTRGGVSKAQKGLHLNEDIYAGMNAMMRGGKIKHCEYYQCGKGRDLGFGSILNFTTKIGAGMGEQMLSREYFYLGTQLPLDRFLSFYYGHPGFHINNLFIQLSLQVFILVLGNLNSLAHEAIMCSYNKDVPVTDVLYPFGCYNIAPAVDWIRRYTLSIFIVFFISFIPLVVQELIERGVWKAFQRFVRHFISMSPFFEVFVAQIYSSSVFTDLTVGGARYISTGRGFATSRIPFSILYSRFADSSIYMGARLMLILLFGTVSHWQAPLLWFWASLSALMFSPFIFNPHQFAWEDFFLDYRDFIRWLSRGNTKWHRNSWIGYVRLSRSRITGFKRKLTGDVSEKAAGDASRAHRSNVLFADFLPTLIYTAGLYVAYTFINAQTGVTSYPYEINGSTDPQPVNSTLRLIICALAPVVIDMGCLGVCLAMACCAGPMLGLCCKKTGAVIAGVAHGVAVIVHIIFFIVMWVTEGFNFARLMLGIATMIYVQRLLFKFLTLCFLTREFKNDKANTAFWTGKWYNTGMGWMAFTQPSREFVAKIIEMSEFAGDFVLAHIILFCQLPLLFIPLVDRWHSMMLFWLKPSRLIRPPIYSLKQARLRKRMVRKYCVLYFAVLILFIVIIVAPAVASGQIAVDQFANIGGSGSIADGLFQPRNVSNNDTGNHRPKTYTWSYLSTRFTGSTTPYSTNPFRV

IC50	Compound
20.9 nM	CC(C)[C@@H](C)[C@@]1(C)CC[C@]2(C)[C@H]3CC[C@@H]4[C@@]5(COC[C@@]4(C)[C@@H](OC[C@](C)(N)C(C)C)[C@H](n4ncnc4-c4ccc6ccccc6c4)C5)C3=CC[C@@]2(C)[C@@H]1C(=O)O [Example 158, (1S,4aR,6aS,7R,8R,10aR,10bR,12aR,14R,15R)-15-[[(2R)-2-amino-2,3-dimethylbutyl]oxy]-8-[(1R)-1,2-dimethylpropyl]-14-[5-(2-naphthalenyl)-1H-1,2,4-triazol-1-yl]-1,6,6a,7,8,9,10,10a,10b,11,12,12a-dodecahydro-1,6a,8,10a-tetramethyl-4H-1,4a-propano-2H-phenanthro[1,2-c]pyran-7-carboxylic acid]
6.8 nM	CN[C@@](C)(CO[C@H]1[C@H](n2ncnc2-c2cccs2)C[C@@]23COC[C@]1(C)[C@@H]2CC[C@H]1C3=CC[C@@]2(C)[C@H](C(=O)O)[C@@](C)([C@H](C)C(C)C)CC[C@]12C)C(C)C [Example 163, (1S,4aR,6aS,7R,8R,10aR,10bR,12aR,14R,15R)-15-[[(2R)-2,3-dimethyl-2-(methylamino)butyl]oxy]-8-[(1R)-1,2-dimethylpropyl]-14-[5-(2-thienyl)-1H-1,2,4-triazol-1-yl]-1,6,6a,7,8,9,10,10a,10b,11,12,12a-dodecahydro-1,6a,8,10a-tetramethyl-4H-1,4a-propano-2H-phenanthro[1,2-c]pyran-7-carboxylic acid]
8.09 nM	CN[C@@](C)(CO[C@H]1[C@H](n2ncnc2C(=O)NCCF)C[C@@]23COC[C@]1(C)[C@@H]2CC[C@H]1C3=CC[C@@]2(C)[C@H](C(=O)O)[C@@](C)([C@H](C)C(C)C)CC[C@]12C)C(C)C [Example 77, (1S,4aR,6aS,7R,8R,10aR,10bR,12aR,14R,15R)-15-[[(2R)-2,3-dimethyl-2-(methylamino)butyl]oxy]-8-[(1R)-1,2-dimethylpropyl]-14-[5-[[(2-fluoroethyl)amino]carbonyl]-1H-1,2,4-triazol-1-yl]-1,6,6a,7,8,9,10,10a,10b,11,12,12a-dodecahydro-1,6a,8,10a-tetramethyl-4H-1,4a-propano-2H-phenanthro[1,2-c]pyran-7-carboxylic acid]
4.15 nM	CC(C)[C@@H](C)[C@@]1(C)CC[C@]2(C)[C@H]3CC[C@@H]4[C@@]5(COC[C@@]4(C)[C@@H](OC[C@](C)(N)C(C)C)[C@H](n4ncnc4-c4cncs4)C5)C3=CC[C@@]2(C)[C@@H]1C(=O)O [Example 193, (1S,4aR,6aS,7R,8R,10aR,10bR,12aR,14R,15R)-15-[[(2R)-2-amino-2,3-dimethylbutyl]oxy]-8-[(1R)-1,2-dimethylpropyl]-14-[5-(5-thiazolyl)-1H-1,2,4-triazol-1-yl]-1,6,6a,7,8,9,10,10a,10b,11,12,12a-dodecahydro-1,6a,8,10a-tetramethyl-4H-1,4a-propano-2H-phenanthro[1,2-c]pyran-7-carboxylic acid]
4.07 nM	CC(C)[C@@H](C)[C@@]1(C)CC[C@]2(C)[C@H]3CC[C@@H]4[C@@]5(COC[C@@]4(C)[C@@H](OC[C@](C)(N)C(C)(C)C)[C@H](n4ncnc4C4CCOCC4)C5)C3=CC[C@@]2(C)[C@@H]1C(=O)O [Example 285, (1S,4aR,6aS,7R,8R,10aR,10bR,12aR,14R,15R)-15-[[(2R)-2-amino-2,3,3-trimethylbutyl]oxy]-8-[(1R)-1,2-dimethylpropyl]-14-[5-(tetrahydro-2H-pyran-4-yl)-1H-1,2,4-triazol-1-yl]-1,6,6a,7,8,9,10,10a,10b,11,12,12a-dodecahydro-1,6a,8,10a-tetramethyl-4H-1,4a-propano-2H-phenanthro[1,2-c]pyran-7-carboxylic acid]
4.42 nM	C=C(C)c1ncnn1[C@@H]1C[C@@]23COC[C@](C)([C@@H]2CC[C@H]2C3=CC[C@@]3(C)[C@H](C(=O)O)[C@@](C)([C@H](C)C(C)C)CC[C@]23C)[C@H]1OC[C@](C)(N)C(C)C [Example 168, (1S,4aR,6aS,7R,8R,10aR,10bR,12aR,14R,15R)-15-[[(2R)-2-amino-2,3-dimethylbutyl]oxy]-8-[(1R)-1,2-dimethylpropyl]-14-[5-(1-methylethenyl)-1H-1,2,4-triazol-1-yl]-1,6,6a,7,8,9,10,10a,10b,11,12,12a-dodecahydro-1,6a,8,10a-tetramethyl-4H-1,4a-propano-2H-phenanthro[1,2-c]pyran-7-carboxylic acid]
20.3 nM	CNC(=O)c1ncnn1[C@@H]1C[C@@]23COC[C@](C)([C@@H]2CC[C@H]2C3=CC[C@@]3(C)[C@H](C(=O)O)[C@@](C)([C@H](C)C(C)C)CC[C@]23C)[C@H]1OCC1(NC)CCSCC1 [Example 116, (1S,4aR,6aS,7R,8R,10aR,10bR,12aR,14R,15R)-8-[(1R)-1,2-dimethylpropyl]-14-[5-[(methylamino)carbonyl]-1H-1,2,4-triazol-1-yl]-15-[[tetrahydro-4-(methylamino)-2H-thiopyran-4-yl]methoxy]-1,6,6a,7,8,9,10,10a,10b,11,12,12a-dodecahydro-1,6a,8,10a-tetramethyl-4H-1,4a-propano-2H-phenanthro[1,2-c]pyran-7-carboxylic acid]
1.06 nM	CC(C)[C@@H](C)[C@@]1(C)CC[C@]2(C)[C@H]3CC[C@@H]4[C@@]5(COC[C@@]4(C)[C@@H](OC[C@](C)(N)C(C)(C)C)[C@H](n4ncnc4-c4ccc(CN)cc4)C5)C3=CC[C@@]2(C)[C@@H]1C(=O)O [Example 178, (1S,4aR,6aS,7R,8R,10aR,10bR,12aR,14R,15R)-14-[5-[4-(aminomethyl)phenyl]-1H-1,2,4-triazol-1-yl]-15-[[(2R)-2-amino-2,3,3-trimethylbutyl]oxy]-8-[(1R)-1,2-dimethylpropyl]-1,6,6a,7,8,9,10,10a,10b,11,12,12a-dodecahydro-1,6a,8,10a-tetramethyl-4H-1,4a-propano-2H-phenanthro[1,2-c]pyran-7-carboxylic acid]
30.7 nM	CC(C)[C@@H](C)[C@@]1(C)CC[C@]2(C)[C@H]3CC[C@@H]4[C@@]5(COC[C@@]4(C)[C@@H](OCC4COCCN4)[C@H](n4ncnc4-c4ccncc4)C5)C3=CC[C@@]2(C)[C@@H]1C(=O)O (single isomer, unassigned) [Example 303A]
8 nM	CC(C)[C@@H](C)[C@@]1(C)CC[C@]2(C)[C@H]3CC[C@@H]4[C@@]5(COC[C@@]4(C)[C@@H](OC[C@](C)(N)c4ccccc4)[C@H](n4ncnc4-c4ccncc4)C5)C3=CC[C@@]2(C)[C@@H]1C(=O)O [Example 245, (1S,4aR,6aS,7R,8R,10aR,10bR,12aR,14R,15R)-15-[[(2R)-2-amino-2-phenylpropyl]oxy]-8-[(1R)-1,2-dimethylpropyl]-14-[5-(4-pyridinyl)-1H-1,2,4-triazol-1-yl]-1,6,6a,7,8,9,10,10a,10b,11,12,12a-dodecahydro-1,6a,8,10a-tetramethyl-4H-1,4a-propano-2H-phenanthro[1,2-c]pyran-7-carboxylic acid]
0.546 nM	CC(C)[C@@H](C)[C@@]1(C)CC[C@]2(C)[C@H]3CC[C@@H]4[C@@]5(COC[C@@]4(C)[C@@H](OC[C@](C)(N)C(C)C)[C@H](n4ncnc4-c4ccc(O)nc4)C5)C3=CC[C@@]2(C)[C@@H]1C(=O)O [Example 199, (1S,4aR,6aS,7R,8R,10aR,10bR,12aR,14R,15R)-15-[[(2R)-2-amino-2,3-dimethylbutyl]oxy]-8-[(1R)-1,2-dimethylpropyl]-14-[5-(6-hydroxy-3-pyridinyl)-1H-1,2,4-triazol-1-yl]-1,6,6a,7,8,9,10,10a,10b,11,12,12a-dodecahydro-1,6a,8,10a-tetramethyl-4H-1,4a-propano-2H-phenanthro[1,2-c]pyran-7-carboxylic acid]
